Measured values from patent US20110218515A1, “Methods for Treating Acute Myocardial Infarctions and Associated Disorders” (The Regents of the University of California, priority 2009, published 2011).

Legend:
[1] = system: congestive heart failure dogs, coronary perfused left ventricular preparation; experiment: VF organization index analysis, pacing-induced heart failure dogs; assay type: in vivo; set-up: key to OI Spatial CoV / OI Temporal CoV: coefficient of variance = SD/mean; details: CHF dogs with PFD
From the text: (§1) Animal Models: Twenty-four dogs weighing 25-30 Kg were divided into three groups: control (n=11), congestive heart failure (n=7), and congestive heart failure with the antifibrotic drug pirfenidone (n=6). Heart Failure (CHF) was induced in 7 dogs via four weeks of rapid ventricular pacing via a lead placed in the RV and pulse generator set to pace at 240 bpm followed by ablation of the AV node to create complete heart block, as described in Li, et al., Circulation 1999; 100:87-95. Ventricular function was monitored weekly with transthoracic echocardiography for 4 weeks. At 4 weeks, the optical mapping study was performed.
(§2) Heart Failure with Pirfenidone (PFD): Heart failure was induced in 6 dogs as described above and PFD was administered as described in Lee et al., Circulation 2006; 114; 1703-12. Oral PFD (800 mg 3 times per day; InterMune, Brisbane, Calif.) was started 2 days before the initiation of pacing and was discontinued >6 half-lives (24 hours) before the optical mapping study.
(§3) With an optical mapping system described in Wu et al., J Cardiovasc Electrophysiol 1998; 9:1336-47, optical recordings were then made from 4-cm^2 area on 3 surfaces of the preparation (epicardial, endocardial (including the papillary muscle, and transmural) by a 16×16 photodiode array (C4657 Hamamatsu, Bridgewater, N.J.) that recorded 256 simultaneous optical action potentials. During optical recordings from a preparation, contractility was blocked with 15 mM 2,3-butadione monoxime (BDM; Sigma-Aldrich)11. Plunge electrodes were placed on the recording surface around the field of view for both pacing and monitoring. Two plunge electrodes were dedicated for recording a bipolar signal for monitoring the electrical activity of the preparation. VF was initiated with either extra stimuli or with rapid burst pacing at a cycle length of 50 ms, a pulse width of 9.9 ms, and an output of 9.9 mA. Several 4-s episodes of VF were recorded on each surface in each preparation. Activation movies of the VF were then viewed, and the activation patterns were determined. After termination of VF, signals were obtained during pacing at 250 ms and isochronal maps of activation were constructed to look at conduction. Activation patterns and wave-front direction during VF were determined from raw fluorescence movies (isopotential). […] VF was defined as rapid and irregular activations on the bipolar signal used for monitoring the electrical activity of the preparation.
(§4) Signal Processing and Frequency Domain Analysis: The signals obtained from the optical mapping recordings were sampled at 2,000 Hz, and for each signal the dominant frequency (DF) was determined and the organization was calculated as described Everett, et al., IEEE Trans Biomed Eng 2001; 48:969-78. Briefly, a fast Fourier transform (FFT) was calculated on the digitally filtered waveform. The data were detrended and multiplied by a Hamming window. The largest peak of the resulting magnitude spectrum was identified, and the positions of the harmonic peaks were determined on the basis of its position. The areas under the largest peak and three of its harmonic peaks were each calculated over a 1-Hz window. This produced an area under four peaks. The total area of the spectrum was calculated from 2 Hz up to but not including the fifth harmonic peak. The ratio of the power under the harmonic peaks to the total power in this range was calculated, and the resulting number was defined as the organization index (OI). The OI was theorized to represent the organization of AF for that signal at that period in time. To calculate the variance of the DFs, spatial coefficient of variance (SD/mean) of the DFs during a single episode of AF among all recording sites and temporal coefficient of variance of average DFs from among AF episodes for each mapping field within each preparation were calculated. Discrete, stable, high frequency areas were noted. […]

[2] = system: ischemia-reperfusion rat model; experiment: Histological analysis of infarct size and fibrosis; assay type: in vivo, Sprague-Dawley rats
Experimental: After baseline echocardiography, thirty male Sprague-Dawley rats, ages 6-10 weeks, underwent myocardial infarction using an ischemia-reperfusion model. Briefly, rats were anesthetized using inhaled isoflurane (5% induction, 2.5% maintenance, O2 output 1 L/min) and positioned supine on an electrically warmed animal surgery platform. Rats were intubated using a 16-gauge i.v. catheter and then ventilated using a Harvard rodent respirator. After a left thoracotomy and pericardiotomy were performed, a 7-0 Ticron suture was introduced into the myocardium, using the left atrial appendage and right outflow tract as landmarks. The depth of entry was 2 mm, which was slightly greater than the level of the left coronary artery. Both suture ends were then threaded through a PE-90 polyethylene tube 6 in. in length to form a “snare loop” around the artery, closed by pulling on the free ends of the suture. […] The suture was then tightened to occlude the artery for 20 minutes and then removed to allow for reperfusion. The chest was then closed with 5-0 prolene suture, and the animal was allowed to recover. After one week and repeat echocardiography, rats were randomized to placebo rodent feed (control group, n=15) or rodent feed mixed with 1.2% pirfenidone (PFD) (treatment group, n=15) for four weeks. All experiments and data analyses were performed with the operator blinded to treatment group.
Ventricular tissue samples were fixed in 10% neutral buffered formalin. The samples were embedded in paraffin, sectioned (10-μm thick), and then stained with Masson's trichrome or Sirius red with fast green counterstain. Stained slides were examined under light microscopy, digitized using a high-resolution scanner, and analyzed using Photoshop CS software. Infarct areas on Masson's trichome corresponded tightly with areas of dense Sirius red staining with minimal to no fast green. Infarct scar area and total area of left ventricular myocardium, for all sections, were manually traced in the digital images and automatically calculated by the software. Infarct size, expressed as a percentage, was measured by dividing the sum of infarct areas from all sections by the sum of LV areas from all sections and multiplying by 100.
The total area of fibrosis was also assessed. After excluding the infarct area (defined as dense fibrosis), fibrosis in the border and non-infarct zones was quantified from digital photomicrographs of the Sirius red-stained sections. Areas containing blood vessels and perivascular interstitial cells were also excluded from fibrosis quantification. The red pixel content of digitized images relative to the total tissue area was counted by using the Adobe Photoshop CS software.

[3] = system: congestive heart failure dogs, coronary perfused left ventricular preparation; experiment: VF frequency domain analysis (dominant frequency), pacing-induced heart failure dogs; assay type: in vivo; details: CHF dogs with PFD
From the text: as §1, §2, §3, §4

## Cc1ccc(=O)n(-c2ccccc2)c1 [pirfenidone]
[1]; Endocardium
  Max OI: 0.61 ± 0.05
  Mean OI: 0.45 ± 0.05
  OI Spatial CoV: 0.16 ± 0.03
  OI Temporal CoV: 0.13 ± 0.01
[1]; Epicardium
  Max OI: 0.62 ± 0.05
  Mean OI: 0.44 ± 0.05
  OI Spatial CoV: 0.17 ± 0.01
  OI Temporal CoV: 0.14 ± 0.01
[1]; Transmural
  Max OI: 0.65 ± 0.06
  Mean OI: 0.48 ± 0.05
  OI Spatial CoV: 0.17 ± 0.03
  OI Temporal CoV: 0.13 ± 0.01
[2]; controls 23±2%, p=0.01
  amount of fibrosis (including border zones and non-MI areas and infarct scar): 13±3%
[2]; rat MI model
  total amount of fibrosis and extra-infarct fibrosis: attenuated
[2]; rat MI model, controls 18%±2.7%, p=0.022
  infarct size, percent of total myocardium: 10±1.9%
[2]; rat MI model, vs control infarcts
  fibrosis within the infarct border zone: not only decreased but its distribution appeared less heterogeneous
[3]; CHF 6 of 7, Controls 3 of 11
  dogs with at least one surface with VF characterized by high DF areas: 3 of 6
[3]; untreated heart failure animals have a very large gradient
  gradient of frequencies over distance, transmural surface: preserved the transmural gradient to that similar to control animals
[3]; Endocardium
  DF Spatial CoV: 0.11 ± 0.04
  DF Temporal CoV: 0.07 ± 0.03
  Max DF: 10.44 ± 1.32 Hz
  Mean DF: 8.29 ± 0.68 Hz
[3]; Epicardium
  DF Spatial CoV: 0.09 ± 0.04
  DF Temporal CoV: 0.05 ± 0.01
  Max DF: 10.92 ± 0.98 Hz
  Mean DF: 9.17 ± 1.08 Hz
[3]; Transmural
  DF Spatial CoV: 0.14 ± 0.06
  DF Temporal CoV: 0.08 ± 0.02
  Max DF: 10.24 ± 1.89 Hz
  Mean DF: 7.93 ± 1.52 Hz
